Source: PMC9654820, “Immunosuppressive Sesquiterpene Pyridine Alkaloids from Tripterygium wilfordii Hook. f” (Molecules, 2022)
“Also recorded” adds a separate entry of the source.

Columns and labels:
Assay type in all cases: cell-based
NF-κB pathway = assay: NF-κB inhibitory (immunosuppressive) activity, luciferase reporter assay in LPS-induced HEK293/NF-κB-Luc cells; conditions: for inhibition at 100 µM / IC50: Homo sapiens; for inhibition at 100 µM: HEK293, 24 h, read-out: NF-κB Inhibitory Rates (%) (N = 3); for IC50: read-out: IC50 NF-κB inhibition
Experimental: The NF-κB inhibitory activities were measured using the HEK293/NF-κB-Luc cells, which were generated as described previously. Briefly, HEK293 cells were co-transfected with a luciferase reporter plasmid, which contained an NF-κB binding site and pcDNA3.1, using Lipofectamine 2000 at a concentration of 10:1. The HEK293/ NF-κB-Luc cells were plated in 48-well plates and cultured in DMEM supplemented with 10% fetal bovine serum (FBS) for 16 h. Then, the cells were treated with the tested compounds, followed by stimulation with 1 μg/mL of LPS for 24 h. The cells were rinsed twice with phosphate-buffered saline (PBS, pH 7.4) and lysed with passive lysis buffer. Then, the inhibitory effects on NF-κB were analyzed using the luciferase assay system according to the manufacturer’s instructions. All the experiments were performed in triplicate.

[1] = Cell viability assay (CCK-8); conditions: human; HEK293 cells, CCK-8, compound at 100 μM, 48 h incubation; read-out: Cell Viability (%) (N = 3)
Experimental: (§1) The viability of HEK293 cells was determined by a CCK-8 assay according to the established protocol. Briefly, 5 × 10^3 cells/well HEK293 cells were cultured in 96-well plates at 37 °C under an atmosphere of 5% CO2 for 24 h and then treated with the tested compounds. After 48 h of incubation, CCK-8 reagent (20 μL) was added into each well and continuously incubated for 2 h at 37 °C. Absorbance at a wavelength of 450 nm was measured by a microplate reader, which was further used to calculate the cell viability. All the experiments were performed in triplicate.

HEK293 cells = assay: Cell viability assay (CCK-8); conditions: for influence on the cell viability: CCK-8, at a concentration of 100 μM
Experimental: as §1

[2] = HEK293/NF-κB-Luc cells induced by LPS (1 μg/mL, 24 h), compound at 100 μM
[3] = HEK293/NF-κB-Luc cells induced by LPS

Molecule | inhibition at 100 µM (NF-κB pathway; [2]) | viability at 48 h, 100 µM [1] | IC50 (NF-κB pathway; [3]) | influence on the cell viability (HEK293 cells) | NF-κB Inhibitory Rates (%) (N = 3) (NF-κB pathway; positive control, HEK293/NF-κB-Luc cells induced by LPS, concentration not given) | NF-κB Inhibitory Rates (%) (N = 3) (NF-κB pathway; [2]) | Cell Viability (%) (N = 3) (HEK293 cells; HEK293 cells, CCK-8, compound at 100 μM, 48 h incubation)
CC(=O)OCC12[C@H](OC(C)=O)[C@H](OC(C)=O)[C@@H]3[C@@H](O)[C@@]14O[C@@]3(C)COC(=O)c1cccnc1CCC(C)(O)C(=O)O[C@@H]([C@H](OC(=O)c1ccoc1)[C@@H]2OC(C)=O)[C@]4(C)O (stereo partly drawn) [Compound 4, 2β-furanoyloxy-1β,7β,8β,11-tetraacetoxy-4α,5α-dihydroxy-3α,15-[2′-methyl-2′-hydroxy-4′-(3′′-carboxy-2′′ -pyridyl)butanoic acid] dicarbolactone dihydro-β-agarofuran] | 7.27 ± 2.28% | 101 ± 3.58% |  |  |  |  | 
CC(=O)OCC12[C@H](OC(C)=O)[C@H](OC(C)=O)[C@@H]3[C@@H](O)[C@@]14O[C@@]3(C)COC(=O)c1cccnc1CCC(C)(O)C(=O)O[C@@H]([C@H](OC(=O)c1ccccc1)[C@@H]2OC(C)=O)[C@]4(C)O (stereo partly drawn) [Compound 5, 2β-benzoyloxy-1β,7β,8β,11-tetraacetoxy-4α,5α-dihydroxy-3α,15-[2′-methyl-2′-hydroxy-4′-(3′′-carboxy-2′′-pyridyl)butanoic acid] dicarbolactone dihydro-β-agarofuran] | > 50% | 93.8 ± 2.2% | 8.75 µM | no influence on the cell viability; also recorded: no effects on the cell viability |  |  | 
CC(=O)OCC12C(OC(C)=O)C(=O)C3C(OC(C)=O)C14OC3(C)COC(=O)c1cccnc1CCC(C)(OC(=O)c1ccoc1)C(=O)OC(C(OC(C)=O)C2OC(C)=O)C4(C)O (stereo not drawn) [Compound 9, 1β,2β,5α,8β,11-pentaacetoxy-4α-droxy-7-oxo-3α,15-[2′-methyl-2′-(3-furoyloxy)-4′-(3′′-carboxy-2′′-pyridyl)butanoic acid] dicarbolactone dihydro-β-agarofuran] | 37.4 ± 1.99% | 99.5 ± 5.71% |  |  |  |  | 
CC(=O)OCC12[C@H](OC(C)=O)C(=O)[C@@H]3[C@@H](OC(C)=O)[C@@]14O[C@@]3(C)COC(=O)c1cccnc1CCC(C)(OC(=O)c1ccccc1)C(=O)O[C@@H]([C@H](OC(C)=O)[C@@H]2OC(C)=O)[C@]4(C)O (stereo partly drawn) [Compound 10, 1β,2β,5α,8β,11-pentaacetoxy-4α-droxy-7-oxo-3α,15-[2′-methyl-2′-(3-benzoyloxy)-4′-(3′′-carboxy-2′′-pyridyl)butanoic acid] dicarbolactone dihydro-β-agarofuran] | 21.7 ± 4.42% | 102.8 ± 0.89% |  |  |  |  | 
CC(=O)OC[C@]12[C@H](OC(C)=O)[C@H](OC(C)=O)[C@@H]3[C@@H](OC(C)=O)[C@@]14O[C@@]3(C)COC(=O)c1cccnc1CCC(C)(O)C(=O)O[C@@H]([C@H](O)[C@@H]2OC(C)=O)[C@@]4(C)O (stereo partly drawn) [Compound 11, tripfordine A] | > 50% | 102 ± 3.66% | 0.74 µM | no influence on the cell viability; also recorded: no effects on the cell viability |  |  | 
CC(=O)OCC12[C@H](OC(C)=O)[C@H](OC(C)=O)[C@@H]3[C@@H](OC(C)=O)[C@@]14O[C@@]3(C)COC(=O)c1cccnc1CCC(C)C(=O)O[C@@H]([C@H](O)[C@@H]2OC(C)=O)[C@]4(C)O (stereo partly drawn) [Compound 12, wilforjine] | 23 ± 3.43% | 93.5 ± 2.76% |  |  |  |  | 
CC(=O)OCC12[C@H](OC(C)=O)C(=O)[C@@H]3[C@@H](OC(C)=O)[C@@]14O[C@@]3(C)COC(=O)c1cccnc1CCC(C)C(=O)O[C@@H]([C@H](OC(C)=O)[C@@H]2OC(C)=O)[C@]4(C)O (stereo partly drawn) [Compound 13, evonimine] | 26.5 ± 5.99% | 100 ± 6.4% |  |  |  |  | 
CC(=O)OCC12[C@H](OC(C)=O)[C@H](OC(C)=O)[C@@H]3[C@@H](OC(C)=O)[C@@]14O[C@@]3(C)COC(=O)c1cccnc1CCC(C)(OC(=O)c1ccccc1)C(=O)O[C@@H]([C@H](OC(C)=O)[C@@H]2OC(C)=O)[C@]4(C)O (stereo partly drawn) [Compound 15, wilfornine A] | 8.73 ± 2.07% | 110 ± 5.83% |  |  |  |  | 
CC(=O)OC[C@]12[C@H](OC(C)=O)[C@H](OC(C)=O)[C@@H]3[C@@H](OC(C)=O)[C@@]14O[C@@]3(C)COC(=O)c1cccnc1CCC(C)C(=O)O[C@@H]([C@H](OC(=O)c1ccccc1)[C@@H]2OC(C)=O)[C@]4(C)O (stereo partly drawn) [Compound 16, wilforine] | > 50% | 103 ± 2.21% | 15.7 µM | no influence on the cell viability; also recorded: no effects on the cell viability |  |  | 
Cc1ccc(NCCCc2ccccc2)c(N)c1 [JSH23, reference compound] |  |  |  |  | 74.56 ± 1.83% |  | 
wilfortrine [Compound 14] |  |  |  |  |  | 40.20 ± 3.92% | 93.76 ± 1.82%
